Test results from ChEMBL document CHEMBL1201862, “PubChem BioAssay data set” (2004).
Active and inactive are the calls of the source.

Assays:
Mu-type opioid receptor = Mu-type opioid receptor (Homo sapiens, UniProt P35372); assay type: functional, cell-based;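 note: U2OS cells with beta-arrestin recruitment to OPRM1 by beta-gal complementation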
[1] = target: 5-hydroxytryptamine receptor 2A (Mus musculus, UniProt P35363); assay type: functional, cell-based;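 note: CHO-K1 cells with tagged receptor and beta-arrestin; agonist potency measured as compound-induced activation of the receptor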
Chain of 5-hydroxytryptamine receptor 2A (P35363 whole entry): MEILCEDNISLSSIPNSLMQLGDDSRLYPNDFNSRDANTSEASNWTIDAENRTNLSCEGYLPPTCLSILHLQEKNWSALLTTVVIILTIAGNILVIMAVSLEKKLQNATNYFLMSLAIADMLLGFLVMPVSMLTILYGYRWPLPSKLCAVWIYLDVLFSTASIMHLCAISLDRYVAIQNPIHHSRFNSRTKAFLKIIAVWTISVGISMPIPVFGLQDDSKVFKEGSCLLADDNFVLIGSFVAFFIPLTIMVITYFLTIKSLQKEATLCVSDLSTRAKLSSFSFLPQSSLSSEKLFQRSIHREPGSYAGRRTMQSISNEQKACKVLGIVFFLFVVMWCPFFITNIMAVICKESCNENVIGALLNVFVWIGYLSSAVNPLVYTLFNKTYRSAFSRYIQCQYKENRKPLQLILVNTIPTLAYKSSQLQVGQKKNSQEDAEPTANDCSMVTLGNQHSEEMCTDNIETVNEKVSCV

[2] = target: T1, Small ubiquitin-related modifier 1 (Homo sapiens, UniProt P63165); assay: inhibitors of SUMO1 peptide binding, dose response, biochemical, fluorescence polarization, uHTS hits (AID 624382); assay type: functional; details: read-out: IC50_Mean
T1 sequence (P63165 whole entry): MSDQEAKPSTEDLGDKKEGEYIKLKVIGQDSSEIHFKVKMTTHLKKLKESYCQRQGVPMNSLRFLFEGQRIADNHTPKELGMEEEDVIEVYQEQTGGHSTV

[3] = target: T1, Small ubiquitin-related modifier 1; assay: inhibitors of SUMO1 partner interactions, dose response, biochemical, FRET (AID 624383); assay type: functional; details: read-out: IC50_Mean
[4] = target: T2, Small ubiquitin-related modifier 2 (Homo sapiens, UniProt P61956); assay: inhibitors of SUMO2 protein-protein interaction, dose response, selectivity assay for SUMO1 interaction inhibitor project, biochemical, FRET, human SUMO2, uHTS hits (AID 624384); assay type: functional; details: read-out: IC50_Mean
T2 sequence (P61956 whole entry): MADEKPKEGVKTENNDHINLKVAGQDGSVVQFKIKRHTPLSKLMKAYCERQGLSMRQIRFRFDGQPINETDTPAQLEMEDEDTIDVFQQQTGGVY

Genome polyprotein = Genome polyprotein (dengue virus type 2, UniProt P29990); assay: Dengue-2 NS5 methyltransferase inhibitors, primary screen, biochemical, confirmation dose response (AID 588689); assay type: functional
[5] = target: T3, Corticotropin-releasing factor receptor 2/Corticotropin-releasing factor-binding protein (Homo sapiens, UniProt P24387+Q13324); assay: Dose Response confirmation of uHTS hits for small molecule antagonists of the CRF-binding protein and CRF-R2 receptor complex.; assay type: functional; details: read-out: IC50_Mean
T3 sequence (Q13324 whole entry): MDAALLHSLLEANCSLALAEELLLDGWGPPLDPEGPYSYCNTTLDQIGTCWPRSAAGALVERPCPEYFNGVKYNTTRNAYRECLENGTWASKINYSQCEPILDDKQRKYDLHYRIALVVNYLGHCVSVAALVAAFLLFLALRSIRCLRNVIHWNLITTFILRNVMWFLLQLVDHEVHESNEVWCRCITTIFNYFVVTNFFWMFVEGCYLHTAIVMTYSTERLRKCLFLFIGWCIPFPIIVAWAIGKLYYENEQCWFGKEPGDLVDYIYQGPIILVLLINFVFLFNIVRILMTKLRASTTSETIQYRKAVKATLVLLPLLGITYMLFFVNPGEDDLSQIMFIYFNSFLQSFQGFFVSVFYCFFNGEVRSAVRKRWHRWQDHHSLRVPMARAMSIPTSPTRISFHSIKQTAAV
T3 sequence (P24387 whole entry): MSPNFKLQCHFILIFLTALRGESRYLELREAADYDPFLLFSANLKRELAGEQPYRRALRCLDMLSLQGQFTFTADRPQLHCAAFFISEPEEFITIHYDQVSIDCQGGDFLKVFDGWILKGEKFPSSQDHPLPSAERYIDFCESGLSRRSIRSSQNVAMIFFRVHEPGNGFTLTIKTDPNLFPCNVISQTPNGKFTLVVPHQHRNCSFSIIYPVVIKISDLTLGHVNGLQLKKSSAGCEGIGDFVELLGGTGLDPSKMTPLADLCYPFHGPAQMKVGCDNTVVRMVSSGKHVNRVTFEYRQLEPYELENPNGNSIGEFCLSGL

[6] = target: T2, Small ubiquitin-related modifier 2; assay: SUMO2–SIM peptide binding inhibitors, dose response, selectivity assay for SUMO1 interaction inhibitor project, biochemical, fluorescence polarization, uHTS hits (AID 624385); assay type: functional; details: read-out: IC50_Mean
[7] = target: T3, Corticotropin-releasing factor receptor 2/Corticotropin-releasing factor-binding protein; assay: activators of CRF receptor 2 with binding protein – uHTS hits, confirmation (AID 602473); assay type: functional; details: read-out: EC50_Mean
Beta-lactamase [8] = target: T4, Beta-lactamase (Pseudomonas aeruginosa, UniProt Q79MP6); assay: […] counterscreen for selective VIM-2 inhibitors: dose response biochemical high throughput screening assay to identify inhibitors of IMP-1 metallo-beta-lactamase.
T4 sequence (Q79MP6 whole entry): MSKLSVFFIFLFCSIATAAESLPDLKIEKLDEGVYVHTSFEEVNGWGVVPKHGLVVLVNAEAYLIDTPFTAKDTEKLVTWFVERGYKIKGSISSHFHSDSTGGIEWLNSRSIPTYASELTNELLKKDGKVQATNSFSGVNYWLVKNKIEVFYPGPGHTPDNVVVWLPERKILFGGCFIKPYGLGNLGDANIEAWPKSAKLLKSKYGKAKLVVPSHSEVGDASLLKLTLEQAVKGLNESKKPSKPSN

Beta-lactamase [9] = target: T4, Beta-lactamase; assay: IMP-1 metallo-beta-lactamase inhibitors, dose response, selectivity assay for VIM-2 inhibitor project, biochemical, epi-absorbance (AID 1920)
Beta Lactamase [10] = target: T5, Beta Lactamase (Pseudomonas aeruginosa, UniProt Q932Y6); assay: VIM-2 inhibitor FRET-based artefact check, dose response, artefact control for selective VIM-2 inhibitor project, biochemical, FRET readout, CCF2 substrate (AID 1926)
T5 sequence (Q932Y6 whole entry): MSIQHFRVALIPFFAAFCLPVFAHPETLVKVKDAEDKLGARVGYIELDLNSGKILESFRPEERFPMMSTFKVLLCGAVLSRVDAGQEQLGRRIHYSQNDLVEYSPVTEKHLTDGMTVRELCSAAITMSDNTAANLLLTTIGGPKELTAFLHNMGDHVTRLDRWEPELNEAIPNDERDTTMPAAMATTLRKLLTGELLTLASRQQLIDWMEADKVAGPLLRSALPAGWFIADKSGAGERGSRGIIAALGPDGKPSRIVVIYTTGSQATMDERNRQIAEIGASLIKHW

Beta-lactamase [11] = target: T6, Beta-lactamase (Salmonella choleraesuis (strain SC-B67), UniProt Q5J463); assay: Epi-absorbance-based counterscreen for selective VIM-2 inhibitors: dose response biochemical high throughput screening assay to identify inhibitors of TEM-1 serine-beta-lactamase.
T6 sequence (Q5J463 whole entry): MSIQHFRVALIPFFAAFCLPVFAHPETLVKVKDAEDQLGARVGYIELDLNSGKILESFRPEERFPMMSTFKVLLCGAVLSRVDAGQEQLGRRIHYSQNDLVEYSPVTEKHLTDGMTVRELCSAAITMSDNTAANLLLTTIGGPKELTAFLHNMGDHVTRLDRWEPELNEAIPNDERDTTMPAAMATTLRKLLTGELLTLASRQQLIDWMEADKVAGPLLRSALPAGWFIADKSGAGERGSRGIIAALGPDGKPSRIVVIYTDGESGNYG

Beta Lactamase [12] = target: T5, Beta Lactamase; assay: VIM-2 metallo-beta-lactamase inhibitor potency, dose response, biochemical, epi-absorbance readout, selective inhibitors (AID 1919)
Prothrombin [13] = target: Prothrombin (Homo sapiens, UniProt P00734); assay: Thrombin 1536 HTS Dose Response Confirmation. [Related pubchem assays: 1046 (Thrombin 1536 HTS; hits were confirmed in this assay)]; assay type: functional
[14] = target: SWI/SNF-related matrix-associated actin-dependent regulator of chromatin subfamily A member 2 (Homo sapiens, UniProt P51531); assay: Luminescence-based cell-based high throughput dose response assay to identify activators of the function of SWI/SNF related, matrix associated, actin dependent regulator of chromatin, subfamily a, member 2 (SMARCA2, BRM).; assay type: functional
[15] = Luminescence Cell-Based Dose Confirmation HTS to Identify Activators of 5'UTR Stem-Loop Driven Alpha-Synuclein mRNA Translation in H4 Neuroglioblastoma Cells. [Related pubchem assays: 1829 (Project Summary), 1814 (Primary HTS)]; assay type: functional
[16] = Luminescence Cell-Based Dose Response HTS to Identify Activators of Luciferase Translation or Activity in H4 […] Cells. [Related pubchem assays: 1829 (Project Summary), 1814 (Primary HTS)]; assay type: functional
[17] = Counterscreen for activators of the function of SWI/SNF related, matrix associated, actin dependent regulator of chromatin, subfamily a, member 2 (SMARCA2, BRM): Luminescence-based cell-based high throughput dose response assay to identify non-selective compounds using the VP16 reporter assay.; assay type: functional
H4 = assay: Luminescence Cell-Based Dose Response HTS to Identify Activators of 5'UTR Stem-Loop Driven Prion Protein mRNA Translation in H4 Neuroglioblastoma Cells. [Related pubchem assays: 1829 (Project Summary), 1814 (Primary HTS)]; assay type: functional; details: Homo sapiens
[18] = AlphaScreen signal interference compounds, dose response, artefact control for ARNT-TACC3 interaction inhibitor project, biochemical, luminescence, cherry-pick (AID 651705); assay type: functional;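 note: AlphaScreen bead proximity signal that flags compounds interfering with the detection technology; potency reflects signal decrease which marks the compound as an assay artifact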
[19] = target: Potassium voltage-gated channel subfamily KQT member 2 (Rattus norvegicus, UniProt O88943); assay: KCNQ2 potassium channel inhibitors, dose response, cell-based, automated electrophysiology, set II, rat KCNQ2 (AID 588637); assay type: functional
Chain of Potassium voltage-gated channel subfamily KQT member 2 (O88943 whole entry): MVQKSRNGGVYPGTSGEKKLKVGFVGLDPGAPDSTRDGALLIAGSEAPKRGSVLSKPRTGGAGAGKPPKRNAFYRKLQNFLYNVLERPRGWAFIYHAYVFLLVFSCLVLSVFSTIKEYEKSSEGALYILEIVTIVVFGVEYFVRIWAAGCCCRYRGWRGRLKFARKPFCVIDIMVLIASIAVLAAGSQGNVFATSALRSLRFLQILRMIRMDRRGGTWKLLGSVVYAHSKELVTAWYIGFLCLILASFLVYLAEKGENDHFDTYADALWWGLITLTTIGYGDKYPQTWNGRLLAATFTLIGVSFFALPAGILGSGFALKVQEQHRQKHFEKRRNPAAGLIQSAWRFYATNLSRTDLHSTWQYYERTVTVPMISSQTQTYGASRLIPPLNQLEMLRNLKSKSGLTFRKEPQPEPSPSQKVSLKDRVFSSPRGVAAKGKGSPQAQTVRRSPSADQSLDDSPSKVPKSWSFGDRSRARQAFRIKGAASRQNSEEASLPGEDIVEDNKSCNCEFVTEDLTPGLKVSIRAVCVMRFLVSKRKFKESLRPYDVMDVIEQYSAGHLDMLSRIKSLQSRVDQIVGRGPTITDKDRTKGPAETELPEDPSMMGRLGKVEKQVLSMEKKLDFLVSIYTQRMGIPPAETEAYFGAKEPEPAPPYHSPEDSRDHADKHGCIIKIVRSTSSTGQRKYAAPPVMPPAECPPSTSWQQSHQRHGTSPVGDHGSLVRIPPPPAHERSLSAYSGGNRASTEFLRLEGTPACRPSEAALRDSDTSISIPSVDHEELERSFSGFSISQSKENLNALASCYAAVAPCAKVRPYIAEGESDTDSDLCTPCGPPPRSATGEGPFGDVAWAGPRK

Streptokinase A = target: T7, Streptokinase A (Streptococcus pyogenes serotype M1, UniProt P10520); assay: S. pyogenes streptokinase expression inhibitors, potency, dose response, plasminogen activation absorbance, OD405 (AID 1914); assay type: functional, Streptococcus pyogenes M1 GAS;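 note: secreted streptokinase activity via plasminogen activation per viability signal from cell pellet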
T7 sequence (P10520 whole entry): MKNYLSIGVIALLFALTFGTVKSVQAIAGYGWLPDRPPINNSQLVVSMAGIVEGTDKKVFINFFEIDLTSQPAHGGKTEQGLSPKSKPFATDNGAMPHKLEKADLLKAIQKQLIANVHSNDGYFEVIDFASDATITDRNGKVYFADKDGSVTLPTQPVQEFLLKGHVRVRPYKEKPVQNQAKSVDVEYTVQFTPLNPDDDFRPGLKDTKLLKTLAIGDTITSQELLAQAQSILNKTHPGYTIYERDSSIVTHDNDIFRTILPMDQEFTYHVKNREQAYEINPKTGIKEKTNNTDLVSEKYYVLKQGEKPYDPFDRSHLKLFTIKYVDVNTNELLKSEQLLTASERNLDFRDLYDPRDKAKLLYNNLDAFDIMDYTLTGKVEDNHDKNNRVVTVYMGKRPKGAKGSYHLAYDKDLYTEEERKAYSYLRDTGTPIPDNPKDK

[20] = tested on: Streptococcus sp. 'group A'; assay: growth inhibition of control SK(-) GAS strain, dose response, counter-screen for streptokinase expression inhibitor project, luminescence, kanamycin, BacTiterGlo, confirmation (AID 1900); assay type: functional, organism-based
[21] = HEK293T cell cytotoxicity, dose response, cytotoxicity control for HIV Vif inhibitor project, cherry-picks (AID 652208); assay type: functional, cell-based
Streptococcus = assay: Group A Streptococcus viability loss, dose response, counter-screen for streptokinase expression inhibitor project, luminescence, BacTiterGlo (AID 1915); assay type: functional, organism-based;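 note: potency for reduction of bacterial viability or growth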
Beta-lactamase [22] = target: T6, Beta-lactamase
[23] = target: T8, Low molecular weight phosphotyrosine protein phosphatase (Homo sapiens, UniProt P24666); assay type: functional; details: read-out: IC50_Mean
T8 sequence (P24666 whole entry): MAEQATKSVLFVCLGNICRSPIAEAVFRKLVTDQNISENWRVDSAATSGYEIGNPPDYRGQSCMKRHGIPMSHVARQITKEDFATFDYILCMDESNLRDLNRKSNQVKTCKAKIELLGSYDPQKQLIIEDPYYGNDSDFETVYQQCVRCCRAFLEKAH

[24] = target: 26S proteasome non-ATPase regulatory subunit 14 (Homo sapiens, UniProt O00487); assay: inhibition of proteasome subunit RPN11 – biochemical, fluorescence polarization, uHTS hits, confirmation (AID 602368); assay type: functional
Chain of 26S proteasome non-ATPase regulatory subunit 14 (O00487 whole entry): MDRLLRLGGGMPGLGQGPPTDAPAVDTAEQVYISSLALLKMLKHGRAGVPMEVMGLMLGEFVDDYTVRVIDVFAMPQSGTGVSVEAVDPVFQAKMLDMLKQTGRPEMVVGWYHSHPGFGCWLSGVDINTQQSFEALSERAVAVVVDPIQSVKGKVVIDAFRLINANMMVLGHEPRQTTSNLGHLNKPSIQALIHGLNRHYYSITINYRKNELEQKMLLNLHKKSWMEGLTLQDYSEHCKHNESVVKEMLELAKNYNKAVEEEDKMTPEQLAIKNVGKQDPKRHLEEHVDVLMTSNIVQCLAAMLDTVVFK

[25] = target: 72 kDa type IV collagenase (Homo sapiens, UniProt P08253); assay: Dose Response validation of uHTS RPN11 inhibitor hits using a MMP-2 Fluorescence assay.; assay type: functional
Beta-lactamase [26] = target: T4, Beta-lactamase
[27] = target: T8, Low molecular weight phosphotyrosine protein phosphatase; assay type: functional; details: read-out: IC50_Mean; remark: listed apart in the source
Beta Lactamase [28] = target: T5, Beta Lactamase
Prothrombin [29] = target: Prothrombin (Bos taurus, UniProt P00735); assay: thrombin inhibition, dose response, biochemical, fluorescence polarization, uHTS hits (AID 602369); assay type: functional
[30] = target: Hepatocyte nuclear factor 4-alpha (Homo sapiens, UniProt P41235); assay type: functional, cell-based;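 note: biochemical luminescence-based dose-response counterscreen measuring inhibition of HNF4 dimerization, run alongside a screen for blockers of ABHD5–perilipin-5 interaction; split luciferase complementation of HNF4 fusion proteins in cell lysate measuring dimerization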
Chain of Hepatocyte nuclear factor 4-alpha (P41235 whole entry, the tested form may be a part): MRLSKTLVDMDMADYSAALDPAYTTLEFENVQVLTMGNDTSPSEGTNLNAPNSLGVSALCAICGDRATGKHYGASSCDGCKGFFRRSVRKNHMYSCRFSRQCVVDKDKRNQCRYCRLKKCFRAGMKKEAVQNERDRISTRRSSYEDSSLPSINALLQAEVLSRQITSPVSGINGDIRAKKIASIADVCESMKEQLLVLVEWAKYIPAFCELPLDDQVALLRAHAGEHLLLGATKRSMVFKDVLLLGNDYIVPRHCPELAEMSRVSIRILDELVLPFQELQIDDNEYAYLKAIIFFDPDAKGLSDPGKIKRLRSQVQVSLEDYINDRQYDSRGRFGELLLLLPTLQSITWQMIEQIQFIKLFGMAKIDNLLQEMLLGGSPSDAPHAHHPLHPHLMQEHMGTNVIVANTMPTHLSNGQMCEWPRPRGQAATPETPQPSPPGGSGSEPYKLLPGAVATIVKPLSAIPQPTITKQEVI

[31] = target: T9, ATP-dependent translocase ABCB1 (Homo sapiens, UniProt P08183); assay: ABCG2 efflux pump inhibitor potency, dose response, Ig-MXP3 cells, JC-1, flow cytometry, set 2 (AID 504566); assay type: functional; details: read-out: EC50_MICROM_;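 note: flow cytometry median green fluorescence of retained JC-1 dye; potency of efflux pump inhibition measured as rising substrate retention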
T9 sequence (P08183 whole entry): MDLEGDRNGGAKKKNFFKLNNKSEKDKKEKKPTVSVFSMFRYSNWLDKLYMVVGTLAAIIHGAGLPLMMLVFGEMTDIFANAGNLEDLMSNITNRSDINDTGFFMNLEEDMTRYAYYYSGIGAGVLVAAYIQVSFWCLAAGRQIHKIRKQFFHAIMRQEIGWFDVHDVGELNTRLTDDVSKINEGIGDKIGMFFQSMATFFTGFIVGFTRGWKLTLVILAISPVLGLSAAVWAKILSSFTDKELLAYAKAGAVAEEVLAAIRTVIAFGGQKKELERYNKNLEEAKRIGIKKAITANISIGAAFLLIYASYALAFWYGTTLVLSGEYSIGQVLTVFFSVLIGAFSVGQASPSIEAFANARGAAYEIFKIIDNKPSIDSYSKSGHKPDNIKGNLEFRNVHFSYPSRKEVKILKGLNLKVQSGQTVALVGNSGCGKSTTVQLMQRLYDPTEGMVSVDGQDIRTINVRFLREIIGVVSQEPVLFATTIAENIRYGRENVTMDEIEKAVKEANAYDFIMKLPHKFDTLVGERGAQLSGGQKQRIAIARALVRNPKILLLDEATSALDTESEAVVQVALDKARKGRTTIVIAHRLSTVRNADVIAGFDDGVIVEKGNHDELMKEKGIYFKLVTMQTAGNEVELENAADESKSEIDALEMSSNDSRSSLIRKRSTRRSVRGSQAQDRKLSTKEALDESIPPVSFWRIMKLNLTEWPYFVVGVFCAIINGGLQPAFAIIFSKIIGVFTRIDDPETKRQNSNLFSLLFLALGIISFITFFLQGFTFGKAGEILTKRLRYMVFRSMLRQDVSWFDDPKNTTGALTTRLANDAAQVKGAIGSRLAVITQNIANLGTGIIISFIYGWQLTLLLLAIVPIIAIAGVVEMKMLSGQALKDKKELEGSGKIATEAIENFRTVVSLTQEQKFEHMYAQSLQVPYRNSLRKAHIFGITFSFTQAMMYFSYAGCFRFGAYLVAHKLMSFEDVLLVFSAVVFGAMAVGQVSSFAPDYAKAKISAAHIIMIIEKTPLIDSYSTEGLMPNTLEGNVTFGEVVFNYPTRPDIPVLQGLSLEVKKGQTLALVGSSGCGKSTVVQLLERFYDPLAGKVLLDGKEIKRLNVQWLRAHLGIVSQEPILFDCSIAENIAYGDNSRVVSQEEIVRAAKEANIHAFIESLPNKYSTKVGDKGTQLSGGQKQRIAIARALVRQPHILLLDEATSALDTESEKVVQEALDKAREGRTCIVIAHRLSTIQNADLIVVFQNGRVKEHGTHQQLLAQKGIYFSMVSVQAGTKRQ

[32] = target: T9, ATP-dependent translocase ABCB1; assay: ABCB1 efflux inhibitor potency, dose response, Jurkat-DNR cells, JC-1, flow cytometry, set 2 (AID 504569); assay type: functional; details: read-out: EC50_MICROM_;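 note: potency of pump inhibitors that raise cellular JC-1 green fluorescence up to the nicardipine level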
[33] = HEK293 cell viability, dose response, counter-screen for EBV LMP1 inhibitor project, dry powder, set 2 (AID 624374); assay type: functional
[34] = LMP1-driven NF-kB reporter inhibition, dose response, cell-based, luciferase reporter, luminescence, dry powder, set 2 (AID 624376); assay type: functional
cells = assay type: functional
[35] = ARNT/TACC3 interaction disruptors, potency, confirmation, biochemical, AlphaScreen, cherry-picked samples (AID 651703); assay type: functional, Homo sapiens;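 note: His-tagged ARNT PAS-B domain paired with GST-TACC3 E629A dimer coactivator fragment; potency of inhibitors that break up the complex and lower AlphaScreen signal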

Chain of Mu-type opioid receptor (P35372 whole entry): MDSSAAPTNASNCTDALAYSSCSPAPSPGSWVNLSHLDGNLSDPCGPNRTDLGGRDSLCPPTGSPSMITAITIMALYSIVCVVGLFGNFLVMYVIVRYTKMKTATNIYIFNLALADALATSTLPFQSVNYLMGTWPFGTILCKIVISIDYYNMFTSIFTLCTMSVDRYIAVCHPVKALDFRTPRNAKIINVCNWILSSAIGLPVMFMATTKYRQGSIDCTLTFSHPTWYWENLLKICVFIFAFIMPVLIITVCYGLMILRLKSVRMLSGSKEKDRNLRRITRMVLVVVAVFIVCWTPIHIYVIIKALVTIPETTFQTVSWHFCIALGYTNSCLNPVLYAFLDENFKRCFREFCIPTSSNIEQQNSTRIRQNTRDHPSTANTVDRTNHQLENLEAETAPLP

Clc1ccccc1CN1CCN(c2ncccn2)CC1
EC50 (Mu-type opioid receptor): 92.5 µM (inactive) | EC50 [1]: 0.407 µM (active)

O=C(Nc1cc(C(=O)Nc2ccccc2C(=O)O)cc(C(=O)Nc2ccccc2C(=O)O)c1)c1ccccc1
IC50 [2]: 1.19 µM (active) | IC50 [3]: 7.45 µM (active) | IC50 [4]: 10.7 µM (active) | IC50 (Genome polyprotein): 12.7 µM (active) | IC50 [5]: > 47.1 µM (inactive) | IC50 [6]: 4.03 µM (active) | EC50 [7]: > 53 µM (inactive)

COc1ccc(OC)c(C2C(C(=O)c3ccco3)=C(O)C(=O)N2Cc2cccnc2)c1 (centres undefined)
IC50 (Beta-lactamase [8]): > 59.6 µM (inactive) | IC50 (Beta-lactamase [9]): > 59.6 µM (inactive) | IC50 (Beta Lactamase [10]): 0.7 µM (active) | IC50 (Beta-lactamase [11]): > 59.6 µM (inactive) | IC50 (Beta Lactamase [12]): 1.94 µM (active)

OCCCCCN=c1cc(-c2ccccc2)oc2ccc(Cl)cc12
IC50 (Prothrombin [13]): 3.04 µM (active) | EC50 [14]: > 10.1 µM (inactive) | EC50 [15]: 14.4 µM (active) | EC50 [16]: 8.23 µM (active) | EC50 [17]: > 10.1 µM (inactive) | EC50 (H4): 15.2 µM (active)

COc1ccc(CCNC(=O)C23CCC(C)(C(=O)C2Br)C3(C)C)cc1OC (centres undefined)
AC50 [18]: 129 µM (active)

COc1ccccc1CNC(=O)C(CC(C)C)NC(=O)C1CCC(C)CC1 (centres undefined)
IC50 [19]: 0.21 µM (active)

O=C1Nc2ccccc2S/C1=C/Nc1cccc(Cl)c1
EC50 [15]: > 120 µM (not active) | EC50 (Streptokinase A): > 150 µM (not active) | EC50 [20]: 17.9 µM (active) | EC50 [16]: 32.5 µM (active) | EC50 (H4): > 120 µM (not active) | AC50 [21]: > 52 µM (inactive) | EC50 (Streptococcus): 6.87 µM (active)

COc1ccc(C(=O)Nc2ccc(/C(C)=N/NC(=O)c3ccncc3)cc2)cc1
IC50 (Beta-lactamase [22]): > 59.6 µM (inactive) | IC50 [23]: 8.92 µM (active) | IC50 [24]: 43 µM (active) | IC50 [25]: > 100 µM (inactive) | IC50 (Beta-lactamase [26]): 10.9 µM (inactive) | IC50 [27]: > 80 µM (inactive) | IC50 (Beta Lactamase [28]): > 59.6 µM (inactive) | IC50 (Prothrombin [29]): > 100 µM (inactive)

CC(C)(C)NC(=O)C(c1cc2ccccc2o1)n1c(=O)c(-c2ccco2)nc2ccccc21 (centres undefined)
IC50 [30]: 1.86 µM (active)

O=C(c1ccco1)N1CCN(c2c3c(nc4cc(-c5cccc(F)c5)nn24)CCC3)CC1
EC50 [31]: 7.76 µM (active) | EC50 [32]: 6.31 µM (active)

C[C@H](CO)N1C[C@H](C)[C@@H](CN(C)S(=O)(=O)c2cccc(F)c2)Oc2ncc(C#CC3CCCCC3)cc2C1=O
AbsAC35 [33]: 324.37 µM | AbsAC35 [34]: 44.29 µM

Cc1nnc(N/N=C/c2ccc(-c3ccc(Br)cc3)o2)n1N
IC50 (cells): 9.58 µM (active) | AC50 [35]: 127 µM (active)
